Test results from patent publication US20230038929A1, “Fused Tricyclic Heterocyclic Compounds and Uses Thereof” (Verge Analytics, Inc., priority 2019, published 2023).
Structures can show the parent of a compound that is named as a salt.

The compounds below were run against T1, Full length human recombinant PIKFYVE (Homo sapiens, UniProt Q9Y2I7, L932S/Q1183K/Q995L/S1033A/S696N/T998S) (assay: Inhibition of PIKfyve (microfluidic electrophoresis kinase assay)). Conditions: 2 nM enzyme, 1 μM PI3P, 3 h at room temperature, 12 concentrations; read-out: PIKfyve IC50.
T1 construct: Full length human recombinant PIKFYVE; purchased Carna Biosciences (Kobe, Japan); host or cells: baculovirus expression system (insect cells)
T1 sequence (Q9Y2I7 whole entry S696N/L932S/Q995L/T998S/S1033A/Q1183K): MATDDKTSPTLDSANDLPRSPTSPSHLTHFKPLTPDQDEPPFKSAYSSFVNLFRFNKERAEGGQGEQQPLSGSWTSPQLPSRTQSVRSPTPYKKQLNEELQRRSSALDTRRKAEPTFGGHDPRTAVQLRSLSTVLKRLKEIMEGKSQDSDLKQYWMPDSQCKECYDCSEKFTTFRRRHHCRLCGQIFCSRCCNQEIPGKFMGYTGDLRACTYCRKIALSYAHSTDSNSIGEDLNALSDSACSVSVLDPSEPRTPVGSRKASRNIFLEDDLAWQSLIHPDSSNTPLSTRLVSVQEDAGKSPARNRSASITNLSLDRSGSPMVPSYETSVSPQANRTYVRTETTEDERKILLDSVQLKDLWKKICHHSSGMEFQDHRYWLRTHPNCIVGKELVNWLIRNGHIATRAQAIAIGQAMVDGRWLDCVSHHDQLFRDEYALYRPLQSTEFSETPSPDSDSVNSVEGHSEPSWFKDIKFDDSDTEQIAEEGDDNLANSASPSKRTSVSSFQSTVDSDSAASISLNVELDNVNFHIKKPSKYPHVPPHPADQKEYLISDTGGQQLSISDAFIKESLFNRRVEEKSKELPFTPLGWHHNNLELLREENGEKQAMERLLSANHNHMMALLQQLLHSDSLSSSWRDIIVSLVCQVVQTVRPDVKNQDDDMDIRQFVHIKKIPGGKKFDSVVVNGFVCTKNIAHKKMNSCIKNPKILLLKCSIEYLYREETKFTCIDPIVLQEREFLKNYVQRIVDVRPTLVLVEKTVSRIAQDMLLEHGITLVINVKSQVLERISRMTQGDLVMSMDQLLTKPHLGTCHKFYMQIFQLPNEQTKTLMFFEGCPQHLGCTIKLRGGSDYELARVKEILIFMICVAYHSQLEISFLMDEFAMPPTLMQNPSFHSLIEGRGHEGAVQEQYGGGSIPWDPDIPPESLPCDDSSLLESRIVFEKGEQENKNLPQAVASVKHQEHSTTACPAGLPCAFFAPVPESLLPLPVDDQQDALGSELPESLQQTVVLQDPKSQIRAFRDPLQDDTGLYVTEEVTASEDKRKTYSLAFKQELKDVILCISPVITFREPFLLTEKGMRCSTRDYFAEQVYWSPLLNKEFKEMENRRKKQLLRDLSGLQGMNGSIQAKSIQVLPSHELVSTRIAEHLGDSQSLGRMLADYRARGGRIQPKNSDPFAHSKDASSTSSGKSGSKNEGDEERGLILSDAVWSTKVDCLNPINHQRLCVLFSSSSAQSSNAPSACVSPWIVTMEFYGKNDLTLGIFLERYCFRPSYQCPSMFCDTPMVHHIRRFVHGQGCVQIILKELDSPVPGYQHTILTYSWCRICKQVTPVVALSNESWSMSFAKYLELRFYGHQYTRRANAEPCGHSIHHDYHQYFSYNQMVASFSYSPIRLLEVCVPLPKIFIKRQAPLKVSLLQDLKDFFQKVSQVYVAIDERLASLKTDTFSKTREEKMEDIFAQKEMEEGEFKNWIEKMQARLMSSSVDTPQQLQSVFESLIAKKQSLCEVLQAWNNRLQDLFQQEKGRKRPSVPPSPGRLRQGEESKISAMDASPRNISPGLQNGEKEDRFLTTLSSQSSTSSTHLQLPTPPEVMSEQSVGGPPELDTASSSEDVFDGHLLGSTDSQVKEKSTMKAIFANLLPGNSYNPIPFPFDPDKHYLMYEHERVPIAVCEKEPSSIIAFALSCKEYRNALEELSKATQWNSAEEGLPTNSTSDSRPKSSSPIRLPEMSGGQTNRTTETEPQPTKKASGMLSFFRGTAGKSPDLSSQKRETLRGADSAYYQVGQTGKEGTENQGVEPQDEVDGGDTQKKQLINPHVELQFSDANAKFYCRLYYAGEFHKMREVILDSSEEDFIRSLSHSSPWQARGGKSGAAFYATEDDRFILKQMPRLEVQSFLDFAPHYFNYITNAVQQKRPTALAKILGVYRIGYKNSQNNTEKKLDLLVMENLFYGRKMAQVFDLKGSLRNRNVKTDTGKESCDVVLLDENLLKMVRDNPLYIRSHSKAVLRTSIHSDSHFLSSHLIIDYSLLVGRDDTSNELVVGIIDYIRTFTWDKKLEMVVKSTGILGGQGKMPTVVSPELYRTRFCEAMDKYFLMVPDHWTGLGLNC
Assay type: biochemical
Protocol: Biological Example 1: Inhibition of PIKfyve
Full length human recombinant PIKFYVE expressed in baculovirus expression system as N-terminal GST-fusion protein (265 kDa) was obtained from Carna Biosciences (Kobe, Japan). The kinase substrate was prepared by mixing and sonicating fluorescently-labeled phosphatidylinositol 3-phosphate (PI3P) with phospho-L-serine (PS) at a 1:10 ratio in 50 mM HEPES buffer pH7.5.
The kinase reactions were assembled in 384-well plates (Greiner) in a total volume of […] as follows. Kinase protein was pre-diluted in an assay buffer comprising 25 mM HEPES, pH 7.5, 1 mM DTT, 2.5 mM MgCl2, and 2.5 mM MnCl2, and 0.005% Triton X-100, and dispensed into a 384-well plate (10 μL per well). Test compounds were serially pre-diluted in DMSO and added to the protein samples by acoustic dispensing (Labcyte Echo). The concentration of DMSO was equalized to 1% in all samples. All test compounds were tested at 12 concentrations. Apilimod was used as a reference compound and was tested in identical manner in each assay plate. Control samples (0%-inhibition, in the absence of inhibitor, DMSO only) and 100%-inhibition (in the absence of enzyme) were assembled in replicates of four and were used to calculate %-inhibition in the presence of compounds. The reactions were initiated by addition of 10 μL of 2× PI3P/PS substrate supplemented with ATP. The final concentration of enzyme was 2 nM, the final concentration of ATP was […], and the final concentration of PI3P/PS substrate was 1 μM (PI3P). The kinase reactions were allowed to proceed for 3 h at room temperature. Following incubation, the reactions were quenched by addition of […] of termination buffer (100 mM HEPES, pH 7.5, 0.01% Triton X-100, 20 mM EDTA). Terminated plates were analyzed on a microfluidic electrophoresis instrument (Caliper LabChip® 3000, Caliper Life Sciences/Perkin Elmer). The change in the relative fluorescence intensity of the PI(3)P substrate and PI(3,5)P product peaks was measured. The activity in each test sample was determined as the product to sum ratio (PSR): P/(S+P), where P is the peak height of the product, and S is the peak height of the substrate. Percent inhibition (Pinh) was determined using the following equation:
Pinh=(PSR0%inh−PSRcompound)/(PSR0%inh−P100%inh)*100
in which PSRcompound is the product/sum ratio in the presence of compound, PSR0%inh is the product/sum ratio in the absence of compound, and the PSR100%inh is the product/sum ratio in the absence of the enzyme. To determine the ICso of test compounds (50%-inhibition) the %-inh cdata (Pinh versus compound concentration) were fitted by a four-parameter sigmoid dose-response model using XLfit software (IDBS).

SMILES	IC50 [nM]
Fc1ccc(-c2cc(Nc3nc(N4CCOCC4)c4oc5ncccc5c4n3)[nH]n2)cc1 [Example 1, N-(3-(4-Fluorophenyl)-1H-pyrazol-5-yl)-4-morpholinopyrido[3′,2′:4,5]furo[3,2-d]pyrimidin-2-amine hydrochloride]	473
c1ccc(CNc2nc(N3CCOCC3)c3oc4ncccc4c3n2)cc1 [Example 2, N-Benzyl-4-morpholinopyrido[3′,2′:4,5]furo[3,2-d]pyrimidin-2-amine]	> 10000
O=C(Nc1nc(N2CCOCC2)c2oc3ncccc3c2n1)c1ccccc1 [Example 3]	> 10000
CN(C)CCOc1ccc2c(n1)oc1c(N3CCOCC3)nc(Nc3cc(-c4ccccc4)n[nH]3)nc12 [Example 4, 7-(2-(Dimethylamino)ethoxy)-4-morpholino-N-(3-phenyl-1H-pyrazol-5-yl)pyrido[3′,2′:4,5]furo[3,2-d]pyrimidin-2-amine hydrochloride]	68
Oc1ccc2c(n1)oc1c(N3CCOCC3)nc(Nc3cc(-c4ccccc4)n[nH]3)nc12 [Example 5, 4-Morpholino-2-((3-phenyl-1H-pyrazol-5-yl)amino)pyrido[3′,2′:4,5]furo[3,2-d]pyrimidin-7-ol hydrochloride]	17
c1ccc(-c2cc(Nc3nc(N4CCOCC4)c4oc5ncccc5c4n3)[nH]n2)nc1 [Example 6, 4-Morpholino-N-(3-(pyridin-2-yl)-1H-pyrazol-5-yl)pyrido[3′,2′:4,5]furo[3,2-d]pyrimidin-2-amine hydrochloride]	251
Cc1ccnc(-c2cc(Nc3nc(N4CCOCC4)c4oc5ncccc5c4n3)[nH]n2)c1 [Example 7, N-(3-(4-Methylpyridin-2-yl)-1H-pyrazol-5-yl)-4-morpholinopyrido[3′,2′:4,5]furo[3,2-d]pyrimidin-2-amine hydrochloride]	573
CN(C)CCc1cnc2oc3c(N4CCOCC4)nc(Nc4cc(-c5ccccc5)n[nH]4)nc3c2c1 [Example 13, 8-(2-(Dimethylamino)ethyl)-4-morpholino-N-(3-phenyl-1H-pyrazol-5-yl)pyrido[3′,2′:4,5]furo[3,2-d]pyrimidin-2-amine]	143
Fc1ccccc1-c1cc(Nc2nc(N3CCOCC3)c3oc4ncccc4c3n2)[nH]n1 [Example 15, N-(3-(2-fluorophenyl)-1H-pyrazol-5-yl)-4-morpholinopyrido[3′,2′:4,5]furo[3,2-d]pyrimidin-2-amine hydrochloride]	108
Fc1cccc(-c2cc(Nc3nc(N4CCOCC4)c4oc5ncccc5c4n3)[nH]n2)c1 [Example 16, N-(3-(3-fluorophenyl)-1H-pyrazol-5-yl)-4-morpholinopyrido[3′,2′:4,5]furo[3,2-d]pyrimidin-2-amine hydrochloride]	129
Clc1cccc(-c2cc(Nc3nc(N4CCOCC4)c4oc5ncccc5c4n3)[nH]n2)c1 [Example 17, N-(3-(3-chlorophenyl)-1H-pyrazol-5-yl)-4-morpholinopyrido[3′,2′:4,5]furo[3,2-d]pyrimidin-2-amine hydrochloride]	129
FC(F)(F)c1cccc(-c2cc(Nc3nc(N4CCOCC4)c4oc5ncccc5c4n3)[nH]n2)c1 [Example 18, 4-morpholino-N-(3-(3-(trifluoromethyl)phenyl)-1H-pyrazol-5-yl)pyrido[3′,2′:4,5]furo[3,2-d]pyrimidin-2-amine hydrochloride]	1630
Fc1ccc(-c2cc(Nc3nc(N4CCOCC4)c4oc5ncccc5c4n3)[nH]n2)cc1F [Example 19, N-(3-(3,4-difluorophenyl)-1H-pyrazol-5-yl)-4-morpholinopyrido[3′,2′:4,5]furo[3,2-d]pyrimidin-2-amine hydrochloride]	2180
c1ccc(-c2c[nH]c(Nc3nc(N4CCOCC4)c4oc5ncccc5c4n3)n2)cc1 [Example 20, 4-morpholino-N-(4-phenyl-1H-imidazol-2-yl)pyrido[3′,2′:4,5]furo[3,2-d]pyrimidin-2-amine hydrochloride]	4750
CN(C)CCCOc1ccc2c(n1)oc1c(N3CCOCC3)nc(Nc3cc(-c4ccccc4)n[nH]3)nc12 [Example 23, 7-(3-(dimethylamino)propoxy)-4-morpholino-N-(3-phenyl-1H-pyrazol-5-yl)pyrido[3′,2′:4,5]furo[3,2-d]pyrimidin-2-amine hydrochloride]	20
c1ccc(-c2cc(Nc3nc(N4CCOCC4)c4oc5nc(OCCN6CCOCC6)ccc5c4n3)[nH]n2)cc1 [Example 24, 4-morpholino-7-(2-morpholinoethoxy)-N-(3-phenyl-1H-pyrazol-5-yl)pyrido[3′,2′:4,5]furo[3,2-d]pyrimidin-2-amine hydrochloride]	61
c1ccc(-c2cc(Nc3nc(N4CCOCC4)c4oc5nc(OCCCN6CCOCC6)ccc5c4n3)[nH]n2)cc1 [Example 25, 4-morpholino-7-(3-morpholinopropoxy)-N-(3-phenyl-1H-pyrazol-5-yl)pyrido[3′,2′:4,5]furo[3,2-d]pyrimidin-2-amine hydrochloride]	14
c1ccc(-c2cc(Nc3nc(N4CCOCC4)c4oc5nc(OCCN6CCCC6)ccc5c4n3)[nH]n2)cc1 [Example 26, 4-morpholino-N-(3-phenyl-1H-pyrazol-5-yl)-7-(2-(pyrrolidin-1-yl)ethoxy)pyrido[3′,2′:4,5]furo[3,2-d]pyrimidin-2-amine hydrochloride]	82
c1ccc(-c2cc(Nc3nc(N4CCOCC4)c4oc5nc(OCCCN6CCCC6)ccc5c4n3)[nH]n2)cc1 [Example 27, 4-morpholino-N-(3-phenyl-1H-pyrazol-5-yl)-7-(3-(pyrrolidin-1-yl)propoxy)pyrido[3′,2′:4,5]furo[3,2-d]pyrimidin-2-amine hydrochloride]	16
CN1CCN(CCOc2ccc3c(n2)oc2c(N4CCOCC4)nc(Nc4cc(-c5ccccc5)n[nH]4)nc23)CC1 [Example 28, 7-(2-(4-methylpiperazin-1-yl)ethoxy)-4-morpholino-N-(3-phenyl-1H-pyrazol-5-yl)pyrido[3′,2′:4,5]furo[3,2-d]pyrimidin-2-amine hydrochloride]	46
CN1CCN(CCCOc2ccc3c(n2)oc2c(N4CCOCC4)nc(Nc4cc(-c5ccccc5)n[nH]4)nc23)CC1 [Example 29, 7-(3-(4-methylpiperazin-1-yl)propoxy)-4-morpholino-N-(3-phenyl-1H-pyrazol-5-yl)pyrido[3′,2′:4,5]furo[3,2-d]pyrimidin-2-amine hydrochloride]	3
COc1ccc2c(n1)oc1c(N3CCOCC3)nc(Nc3cc(-c4ccccc4)n[nH]3)nc12 [Example 30, 7-methoxy-4-morpholino-N-(3-phenyl-1H-pyrazol-5-yl)pyrido[3′,2′:4,5]furo[3,2-d]pyrimidin-2-amine hydrochloride]	163
c1cncc(-c2cc(Nc3nc(N4CCOCC4)c4oc5ncccc5c4n3)[nH]n2)c1 [Example 31, 4-morpholino-N-(3-(pyridin-3-yl)-1H-pyrazol-5-yl)pyrido[3′,2′:4,5]furo[3,2-d]pyrimidin-2-amine hydrochloride]	1090
Cc1cncc(-c2cc(Nc3nc(N4CCOCC4)c4oc5ncccc5c4n3)[nH]n2)c1 [Example 32, N-(3-(5-methylpyridin-3-yl)-1H-pyrazol-5-yl)-4-morpholinopyrido[3′,2′:4,5]furo[3,2-d]pyrimidin-2-amine hydrochloride]	825
Cc1cccc(-c2cc(Nc3nc(N4CCOCC4)c4oc5ncccc5c4n3)[nH]n2)n1 [Example 33, N-(3-(6-methylpyridin-2-yl)-1H-pyrazol-5-yl)-4-morpholinopyrido[3′,2′:4,5]furo[3,2-d]pyrimidin-2-amine hydrochloride]	261
COc1cccc(-c2cc(Nc3nc(N4CCOCC4)c4oc5ncccc5c4n3)[nH]n2)c1 [Example 34, N-(3-(3-methoxyphenyl)-1H-pyrazol-5-yl)-4-morpholinopyrido[3′,2′:4,5]furo[3,2-d]pyrimidin-2-amine hydrochloride]	303
FC(F)(F)Oc1cccc(-c2cc(Nc3nc(N4CCOCC4)c4oc5ncccc5c4n3)[nH]n2)c1 [Example 35, 4-morpholino-N-(3-(3-(trifluoromethoxy)phenyl)-1H-pyrazol-5-yl)pyrido[3′,2′:4,5]furo[3,2-d]pyrimidin-2-amine hydrochloride]	1540
